Experiment [1] has as its system Staphylococcus aureus. Put plainly: Antibacterial activity against Staphylococcus aureus MTCC 96 at 100 ug incubated for 24 hrs under dark condition by agar well diffusion method. The format is functional. As to conditions: MTCC 96, 24 h, read-out: IZ.
Experiment [2] relates to Staphylococcus aureus. Briefly: Antibacterial activity against Staphylococcus aureus MTCC 96 incubated for 24 hrs under dark condition by microwell dilution method. The format is functional. As to conditions: MTCC 96, 24 h.
The test system of experiment [3] is Bacillus subtilis. Briefly: Antibacterial activity against Bacillus subtilis MTCC 121 at 100 ug incubated for 24 hrs under dark condition by agar well diffusion method. The class given is functional. As to conditions: MTCC 121, 24 h, read-out: IZ. A general note: In agar diffusion tests the substance spreads into inoculated agar from a disc or well.
In experiment [4] the test system is Bacillus subtilis. Put plainly: Antibacterial activity against Bacillus subtilis MTCC 121 incubated for 24 hrs under dark condition by microwell dilution method. The format is functional. The settings on record: MTCC 121, 24 h.
The test system of experiment [5] is Escherichia coli. Briefly: Antibacterial activity against Escherichia coli MTCC 1652 at 100 ug incubated for 24 hrs under dark condition by agar well diffusion method. The format is functional. The settings on record: MTCC 1652, 24 h, read-out: IZ.
The subject of experiment [6] is Escherichia coli. Briefly: Antibacterial activity against Escherichia coli MTCC 1652 incubated for 24 hrs under dark condition by microwell dilution method. As to conditions: MTCC 1652, 24 h. The format is functional.
The test system of experiment [7] is Pseudomonas aeruginosa. Briefly: Antibacterial activity against Pseudomonas aeruginosa MTCC 102 at 100 ug incubated for 24 hrs under dark condition by agar well diffusion method. The class given is functional. The settings on record: MTCC 102, 24 h, read-out: IZ.
For experiment [8], the system named is Pseudomonas aeruginosa. Briefly: Antibacterial activity against Pseudomonas aeruginosa MTCC 102 incubated for 24 hrs under dark condition by microwell dilution method. The class given is functional. As to conditions: MTCC 102, 24 h.
Experiment [9] can be described thus: Antioxidant activity assessed as DPPH radical scavenging activity after 20 mins by UV/VIS Spectrophotometric method. The class given is functional.
Experiment [10] can be described thus: Antioxidant activity assessed as assessed as ferric ion reducing activity by measuring absorbance at 700 nm at 20 ug/ml after 20 mins by spectrophotometric method. The format is functional.
Experiment [11] is described as follows: Antioxidant activity assessed as total antioxidant capacity measured as ascorbic acid equivalents at 20 ug/ml after 90 mins by phosphomolybdenum method. The format is functional.
Experiment [12] deals with MCF7. Briefly: Cytotoxicity against human MCF7 cells assessed as decrease in cell viability after 48 hrs by MTT assay. The settings on record: MCF7, 48 h. The class given is functional, cell-based. (Tetrazolium assays rely on reduction of a dye to a coloured formazan, in cell work by metabolically active cells.)
Experiment [13] deals with A549. Briefly: Cytotoxicity against human A549 cells assessed as decrease in cell viability after 48 hrs by MTT assay. The format is functional, cell-based. The settings on record: A549, 48 h.
Experiment [14] relates to MCF7. Briefly: Induction of apoptosis in human MCF7 cells assessed as cell blebbing at IC50 after 48 hrs by acridine orange/ ethidium bromide staining-based fluorescence microscopic method. The format is functional.
Experiment [15] relates to MCF7. Put plainly: Induction of apoptosis in human MCF7 cells assessed as cell shrinkage at IC50 after 48 hrs by acridine orange/ ethidium bromide staining-based fluorescence microscopic method. The class given is functional.
In experiment [16] the test system is A549. Put plainly: Induction of apoptosis in human A549 cells assessed as cell blebbing at IC50 after 48 hrs by acridine orange/ ethidium bromide staining-based fluorescence microscopic method. The format is functional.
Experiment [17] relates to A549. Put plainly: Induction of apoptosis in human A549 cells assessed as cell shrinkage at IC50 after 48 hrs by acridine orange/ ethidium bromide staining-based fluorescence microscopic method. The format is functional.
The subject of experiment [18] is A549. Briefly: Induction of apoptosis in human A549 cells assessed as chromatin condensation at IC50 by DAPI staining-based fluorescence microscopic method. The format is functional, cell-based.
Experiment [19] deals with A549. Briefly: Induction of apoptosis in human A549 cells assessed as nuclear fragmentation at IC50 by DAPI staining-based fluorescence microscopic method. The class given is functional, cell-based.
The test system of experiment [20] is MCF7. Briefly: Induction of apoptosis in human MCF7 cells assessed as chromatin condensation at IC50 by DAPI staining-based fluorescence microscopic method. The class given is functional, cell-based.
The test system of experiment [21] is MCF7. Put plainly: Induction of apoptosis in human MCF7 cells assessed as nuclear fragmentation at IC50 by DAPI staining-based fluorescence microscopic method. The class given is functional, cell-based.
The nature of experiment [22]: Antioxidant activity assessed as assessed as ferric ion reducing activity by measuring absorbance at 700 nm at 60 ug/ml after 20 mins by spectrophotometric method. The class given is functional.
Experiment [23] in a line: Antioxidant activity assessed as assessed as ferric ion reducing activity by measuring absorbance at 700 nm at 100 ug/ml after 20 mins by spectrophotometric method. The class given is functional.
A short description of experiment [24]: Antioxidant activity assessed as total antioxidant capacity measured as ascorbic acid equivalents at 60 ug/ml after 90 mins by phosphomolybdenum method. The format is functional.
Experiment [25] in a line: Antioxidant activity assessed as total antioxidant capacity measured as ascorbic acid equivalents at 100 ug/ml after 90 mins by phosphomolybdenum method. The class given is functional.

Converted amounts (≈) assume the structure as drawn. The source made the active and inactive calls. The calls are words filed in the database; no cut-off is given here.

As usually defined, the MIC is the lowest concentration found to suppress growth. A low value points to inhibition by little substance. For orientation: IC50 means the concentration that gives 50% inhibition. As for `N#CC1=C(N)OC2=C(CNc3c2cccc3[N+](=O)[O-])C1c1cccs1` (stereo not drawn), the zone of inhibition at 100 µg/disc in the experiment on Staphylococcus aureus [1] was found to be 23 mm; in the experiment with Bacillus subtilis [3] it was 29 mm; in the experiment on Escherichia coli [5] it was 22 mm; with Pseudomonas aeruginosa [7], 20 mm. Also, the MIC came to 5 µg/mL (≈ 14.2 µM) against Staphylococcus aureus [2], 5 µg/mL (≈ 14.2 µM) in the experiment with Bacillus subtilis [4], 17 µg/mL (≈ 48.2 µM) in the experiment on Escherichia coli [6] and 37 µg/mL (≈ 105 µM) against Pseudomonas aeruginosa [8]. Besides, the IC50 worked out at 194.81 µg/mL (≈ 553 µM) in experiment [9], 14.3 µM in the experiment with MCF7 [12] and 15.4 µM in the experiment with A549 [13]. The OD in experiment [10] was determined as 0.098; in experiment [22], 0.118; in [23] it was 0.134. For the same compound, the Activity in experiment [11] came to 2.19 µgequiv/ml; in experiment [24], 5.72 µgequiv/ml; in experiment [25], 11.8 µgequiv/ml. For the same compound, the outcome in the experiment with MCF7 [14], in the experiment on MCF7 [15], with A549 [16], in the experiment with A549 [17], in the experiment on A549 [18] and in the experiment on A549 [19] was Active. Besides, the result with MCF7 [20] and with MCF7 [21] was Active.

Take `O=[N+]([O-])c1cc(Cl)cc2c1NCC1C2=NNC1c1ccc(F)cc1` (stereo not drawn): the zone of inhibition at 100 µg/disc in the experiment on Staphylococcus aureus [1] is 12 mm; in the experiment on Bacillus subtilis [3], 12 mm; with Escherichia coli [5], 12 mm; with Pseudomonas aeruginosa [7], 8 mm. Also, the minimal inhibitory concentration (MIC) was 50 µg/mL (≈ 144 µM) against Staphylococcus aureus [2], 50 µg/mL (≈ 144 µM) with Bacillus subtilis [4], 80.5 µg/mL (≈ 232 µM) in the experiment on Escherichia coli [6] and 200 µg/mL (≈ 577 µM) with Pseudomonas aeruginosa [8]. Further, the values for the IC50 (in [9]; with MCF7 [12]; in the experiment on A549 [13]) were 155.12 µg/mL (≈ 447 µM), 98.7 µM and 63.6 µM, respectively. For the same compound, the results for the OD in [10], in experiment [22] and in experiment [23] were 0.08, 0.088 and 0.098, respectively. Besides, the figures for the Activity in [11], in experiment [24] and in [25] were 1.21 µgequiv/ml, 2.49 µgequiv/ml and 5.03 µgequiv/ml, respectively.

Consider `COc1ccc(C2C3CNc4c(cccc4[N+](=O)[O-])C3=NN2c2ccccc2)cc1OC` (stereo not drawn), for which the zone of inhibition at 100 µg/disc with Staphylococcus aureus [1] is 19 mm; with Bacillus subtilis [3], 19 mm; in the experiment on Escherichia coli [5] it was 18 mm; in the experiment with Pseudomonas aeruginosa [7], 16 mm. Further, the MIC was determined as 12.5 µg/mL (≈ 29 µM) with Staphylococcus aureus [2], 12.5 µg/mL (≈ 29 µM) against Bacillus subtilis [4], 34 µg/mL (≈ 79 µM) in the experiment on Escherichia coli [6] and 55.5 µg/mL (≈ 129 µM) against Pseudomonas aeruginosa [8]. Further, the IC50 is 169.91 µg/mL (≈ 395 µM) in [9], 58.5 µM with MCF7 [12] and 46.4 µM in the experiment on A549 [13]. Moreover, the OD in experiment [10] was 0.084; in experiment [22], 0.102; in [23], 0.155. The Activity in experiment [11] came to 4.04 µgequiv/ml; in [24] it was 8.12 µgequiv/ml; in experiment [25], 12.3 µgequiv/ml.

Regarding `CCOc1ccc(C2C3CNc4c(cccc4[N+](=O)[O-])C3=NN2c2ccccc2)c(OCC)c1` (stereo not drawn), the zone of inhibition at 100 µg/disc in the experiment with Staphylococcus aureus [1] was determined as 19 mm; in the experiment on Bacillus subtilis [3], 23 mm; in the experiment with Escherichia coli [5] it was 19 mm; in the experiment with Pseudomonas aeruginosa [7] it was 18 mm. In addition, the MIC against Staphylococcus aureus [2] came out at 10 µg/mL (≈ 21.8 µM); with Bacillus subtilis [4], 7.5 µg/mL (≈ 16.4 µM); against Escherichia coli [6] it was 34 µg/mL (≈ 74.2 µM); against Pseudomonas aeruginosa [8], 55.5 µg/mL (≈ 121 µM). For the same compound, the IC50 in experiment [9] is 170.8 µg/mL (≈ 373 µM); with MCF7 [12], 65.7 µM; in the experiment with A549 [13], 50.9 µM. Further, the OD stood at 0.068 in experiment [10], 0.085 in [22] and 0.098 in experiment [23]. Besides, the Activity was 2.46 µgequiv/ml in experiment [11], 5.75 µgequiv/ml in experiment [24] and 9.47 µgequiv/ml in experiment [25].

Regarding `Cc1ccc(C2C3CNc4c(cccc4[N+](=O)[O-])C3=NN2c2ccccc2)cc1` (stereo not drawn), the zone of inhibition at 100 µg/disc with Staphylococcus aureus [1] amounted to 12 mm; in the experiment on Bacillus subtilis [3], 12 mm; with Escherichia coli [5] it was 10 mm; in the experiment with Pseudomonas aeruginosa [7] it was 8 mm. Besides, the minimal inhibitory concentration (MIC) amounted to 50 µg/mL (≈ 130 µM) with Staphylococcus aureus [2], 50 µg/mL (≈ 130 µM) against Bacillus subtilis [4], 80.5 µg/mL (≈ 209 µM) against Escherichia coli [6] and 200 µg/mL (≈ 520 µM) in the experiment on Pseudomonas aeruginosa [8]. Also, the IC50 came to 185.06 µg/mL (≈ 481 µM) in experiment [9], 72.8 µM with MCF7 [12] and 45.8 µM in the experiment on A549 [13]. For the same compound, the OD came to 0.082 in experiment [10], 0.096 in experiment [22] and 0.145 in [23]. For the same compound, the figures for the Activity in experiment [11], in experiment [24] and in experiment [25] were 3.33 µgequiv/ml, 5.23 µgequiv/ml and 10.2 µgequiv/ml, respectively.

The values above are taken from ChEMBL document CHEMBL4004883, “Biologically active perspective synthesis of heteroannulated 8-nitroquinolines with green chemistry approach” (Bioorg Med Chem Lett, 2017).
